Assay results taken from ChEMBL document CHEMBL1671617, “Correlation of antimicrobial resistance with beta-lactamases, the OmpA-like porin, and efflux pumps in clinical isolates of Acinetobacter baumannii endemic to New York City” (2008).
Converted amounts (≈) assume the structure as drawn.

How the values were obtained:
Assay type in all cases: functional
Acinetobacter baumannii [1] = assay: Antimicrobial activity against Acinetobacter baumannii unique clonal group isolate 39 expressing ampC, ompA, adeM by Etest method
Acinetobacter baumannii [2] = assay: Antimicrobial activity against ISAba1 linked with the blaOXA-51-type beta-lactamase harboring Acinetobacter baumannii beta clonal group isolate 10 expressing ompA, adeB, adeM, aacA4, blaSHV-5 by Etest method
Acinetobacter baumannii [3] = assay: Antimicrobial activity against Acinetobacter baumannii alpha clonal group isolate 3 expressing ampC, ompA, adeB, adeM, aacC1, aadA1 by Etest method
Acinetobacter baumannii [4] = assay: Antimicrobial activity against Acinetobacter baumannii eta clonal group isolate 35 expressing ampC, ompA, adeB, adeM by Etest method
Acinetobacter baumannii [5] = assay: Antimicrobial activity against ISAba1 linked with the blaOXA-51-type beta-lactamase harboring Acinetobacter baumannii zeta clonal group isolate 26 expressing ampC, ompA, adeB, adeM, aadA1, aacA4, aacC2, blaSHV-5 by Etest method
Acinetobacter baumannii [6] = assay: Antimicrobial activity against ISAba1 linked with the blaOXA-51-type beta-lactamase harboring Acinetobacter baumannii zeta clonal group isolate 23 expressing ampC, ompA, adeB, adeM, aadA1, aacA4, aacC2, aphA6 by Etest method
Acinetobacter baumannii [7] = assay: Antimicrobial activity against ISAba1 linked with the blaOXA-51-type beta-lactamase harboring Acinetobacter baumannii zeta clonal group isolate 22 expressing ampC, ompA, adeB, adeM, aadA1, aacA4, aacC2, blaSHV-5 by Etest method
Acinetobacter baumannii [8] = assay: Antimicrobial activity against Acinetobacter baumannii unique clonal group isolate 38 expressing ampC, ompA, adeB, adeM by Etest method
Acinetobacter baumannii [9] = assay: Antimicrobial activity against ISAba1 linked with the blaOXA-51-type beta-lactamase harboring Acinetobacter baumannii lambda clonal group isolate 28 expressing ampC, ompA, adeM, aadB, aadA1 by Etest method
Acinetobacter baumannii [10] = assay: Antimicrobial activity against Acinetobacter baumannii nu clonal group isolate 31 expressing ampC, ompA, adeB, adeM, aadB, aadA2 by Etest method
Acinetobacter baumannii [11] = assay: Antimicrobial activity against ISAba1 linked with the blaOXA-51-type beta-lactamase harboring Acinetobacter baumannii beta clonal group isolate 15 expressing ompA, adeB, adeM, aacA4, blaSHV-5 by Etest method
Acinetobacter baumannii [12] = assay: Antimicrobial activity against ISAba1 linked with the blaOXA-51-type beta-lactamase harboring Acinetobacter baumannii zeta clonal group isolate 19 expressing ampC, ompA, adeB, adeM, aacC2 by Etest method
Acinetobacter baumannii [13] = assay: Antimicrobial activity against ISAba1 linked with the blaOXA-51-type beta-lactamase harboring Acinetobacter baumannii beta clonal group isolate 14 expressing ompA, adeB, adeM, aacA4, blaSHV-5 by Etest method
Acinetobacter baumannii [14] = assay: Antimicrobial activity against Acinetobacter baumannii nu clonal group isolate 33 expressing ampC, ompA, adeB, adeM by Etest method
Acinetobacter baumannii [15] = assay: Antimicrobial activity against ISAba1 linked with the blaOXA-51-type beta-lactamase harboring Acinetobacter baumannii alpha clonal group isolate 6 expressing ampC, ompA, adeB, adeM, aacC1, aadA1 by Etest method
Acinetobacter baumannii [16] = assay: Antimicrobial activity against ISAba1 linked with the blaOXA-51-type beta-lactamase harboring Acinetobacter baumannii alpha clonal group isolate 7 expressing ampC, ompA, adeB, adeM, blaSHV-5 by Etest method
Acinetobacter baumannii [17] = assay: Antimicrobial activity against Acinetobacter baumannii unique clonal group isolate 37 expressing ampC, ompA, adeB, adeM by Etest method
Acinetobacter baumannii [18] = assay: Antimicrobial activity against ISAba1 linked with the blaOXA-51-type beta-lactamase harboring Acinetobacter baumannii beta clonal group isolate 9 expressing ampC, ompA, adeB, adeM by Etest method
Acinetobacter baumannii [19] = assay: Antimicrobial activity against ISAba1 linked with the blaOXA-51-type beta-lactamase harboring Acinetobacter baumannii unique clonal group isolate 40 expressing ampC, ompA, adeB, adeM, aadA1, aacA4, aacC2, blaSHV-5 by Etest method
Acinetobacter baumannii [20] = assay: Antimicrobial activity against Acinetobacter baumannii alpha clonal group isolate 4 expressing ampC, ompA, adeB, adeM, aacC1, aadA1 by Etest method
Acinetobacter baumannii [21] = assay: Antimicrobial activity against ISAba1 linked with the blaOXA-51-type beta-lactamase harboring Acinetobacter baumannii lambda clonal group isolate 30 expressing ampC, ompA, adeB, adeM, aadB, aadA1 by Etest method
Acinetobacter baumannii [22] = assay: Antimicrobial activity against ISAba1 linked with the blaOXA-51-type beta-lactamase harboring Acinetobacter baumannii beta clonal group isolate 11 expressing ompA, adeB, adeM, blaSHV-5 by Etest method
Acinetobacter baumannii [23] = assay: Antimicrobial activity against ISAba1 linked with the blaOXA-51-type beta-lactamase harboring Acinetobacter baumannii zeta clonal group isolate 20 expressing ampC, ompA, adeB, adeM, aacC2 by Etest method
Acinetobacter baumannii [24] = assay: Antimicrobial activity against ISAba1 linked with the blaOXA-51-type beta-lactamase harboring Acinetobacter baumannii alpha clonal group isolate 8 expressing ampC, ompA, adeB, adeM, aacC1, aadA1 by Etest method
Acinetobacter baumannii [25] = assay: Antimicrobial activity against ISAba1 linked with the blaOXA-51-type beta-lactamase harboring Acinetobacter baumannii alpha clonal group isolate 1 expressing ampC, ompA, adeB, adeM by Etest method
Acinetobacter baumannii [26] = assay: Antimicrobial activity against ISAba1 linked with the blaOXA-51-type beta-lactamase harboring Acinetobacter baumannii beta clonal group isolate 18 expressing ompA, adeB, adeM, aacA4, blaSHV-5 by Etest method
Acinetobacter baumannii [27] = assay: Antimicrobial activity against Acinetobacter baumannii nu clonal group isolate 32 expressing ampC, ompA, adeB, adeM, aadB, aadA2 by Etest method
Acinetobacter baumannii [28] = assay: Antimicrobial activity against ISAba1 linked with the blaOXA-51-type beta-lactamase harboring Acinetobacter baumannii beta clonal group isolate 16 expressing ompA, adeB, adeM, aacA4, blaSHV-5 by Etest method
Acinetobacter baumannii [29] = assay: Antimicrobial activity against Acinetobacter baumannii alpha clonal group isolate 5 expressing ampC, ompA, adeB, adeM, aacC1, aadA1 by Etest method
Acinetobacter baumannii [30] = assay: Antimicrobial activity against Acinetobacter baumannii eta clonal group isolate 36 expressing ampC, ompA, adeB, adeM by Etest method
Acinetobacter baumannii [31] = assay: Antimicrobial activity against ISAba1 linked with the blaOXA-51-type beta-lactamase harboring Acinetobacter baumannii beta clonal group isolate 13 expressing ompA, adeB, adeM, aacA4, blaSHV-5 by Etest method
Acinetobacter baumannii [32] = assay: Antimicrobial activity against ISAba1 linked with the blaOXA-51-type beta-lactamase harboring Acinetobacter baumannii beta clonal group isolate 17 expressing ompA, adeB, adeM, aacA4, blaSHV-5 by Etest method
Acinetobacter baumannii [33] = assay: Antimicrobial activity against ISAba1 linked with the blaOXA-51-type beta-lactamase harboring Acinetobacter baumannii beta clonal group isolate 12 expressing ompA, adeB, adeM, aacA4, aacC2, blaSHV-5 by Etest method
Acinetobacter baumannii [34] = assay: Antimicrobial activity against ISAba1 linked with the blaOXA-51-type beta-lactamase harboring Acinetobacter baumannii zeta clonal group isolate 24 expressing ampC, ompA, adeB, adeM, aadA1, aacA4, aacC2, blaSHV-5 by Etest method
Acinetobacter baumannii [35] = assay: Antimicrobial activity against ISAba1 linked with the blaOXA-51-type beta-lactamase harboring Acinetobacter baumannii zeta clonal group isolate 21 expressing ampC, ompA, adeB, adeM, aacC2, blaSHV-5 by Etest method
Acinetobacter baumannii [36] = assay: Antimicrobial activity against ISAba1 linked with the blaOXA-51-type beta-lactamase harboring Acinetobacter baumannii lambda clonal group isolate 29 expressing ampC, ompA, adeM, aadB, aadA1 by Etest method
Acinetobacter baumannii [37] = assay: Antimicrobial activity against Acinetobacter baumannii nu clonal group isolate 34 expressing ampC, ompA, adeB, adeM by Etest method
Acinetobacter baumannii [38] = assay: Antimicrobial activity against Acinetobacter baumannii lambda clonal group isolate 27 expressing ampC, ompA, adeB, adeM, aadB, aadA1 by Etest method
Acinetobacter baumannii [39] = assay: Antimicrobial activity against Acinetobacter baumannii alpha clonal group isolate 2 expressing ampC, ompA, adeB, adeM, aacC1, aadA1 by Etest method
Acinetobacter baumannii [40] = assay: Antimicrobial activity against ISAba1 linked with the blaOXA-51-type beta-lactamase harboring Acinetobacter baumannii zeta clonal group isolate 25 expressing ampC, ompA, adeB, adeM, aadA1, aacA4, aacC2, blaSHV-5 by Etest method

Question: Which results are given for `NCC[C@H](O)C(=O)N[C@@H]1C[C@H](N)[C@@H](O[C@H]2O[C@H](CN)[C@@H](O)[C@H](O)[C@H]2O)[C@H](O)[C@H]1O[C@H]1O[C@H](CO)[C@@H](O)[C@H](N)[C@H]1O` [AMIKACIN]?
Answer: MIC (Acinetobacter baumannii [1]): 1.5 µg/mL (≈ 2.56 µM); MIC (Acinetobacter baumannii [2]): 6 µg/mL (≈ 10.2 µM); MIC (Acinetobacter baumannii [3]): 2 µg/mL (≈ 3.42 µM); MIC (Acinetobacter baumannii [4]): 3 µg/mL (≈ 5.12 µM); MIC (Acinetobacter baumannii [5]): 32 µg/mL (≈ 54.6 µM); MIC (Acinetobacter baumannii [6]): 24 µg/mL (≈ 41 µM); MIC (Acinetobacter baumannii [7]): 48 µg/mL (≈ 82 µM); MIC (Acinetobacter baumannii [8]): 1.5 µg/mL (≈ 2.56 µM); MIC (Acinetobacter baumannii [9]): 3 µg/mL (≈ 5.12 µM); MIC (Acinetobacter baumannii [10]): 4 µg/mL (≈ 6.83 µM); MIC (Acinetobacter baumannii [11]): 8 µg/mL (≈ 13.7 µM); MIC (Acinetobacter baumannii [12]): 3 µg/mL (≈ 5.12 µM); MIC (Acinetobacter baumannii [13]): 8 µg/mL (≈ 13.7 µM); MIC (Acinetobacter baumannii [14]): 3 µg/mL (≈ 5.12 µM); MIC (Acinetobacter baumannii [15]): 1.5 µg/mL (≈ 2.56 µM); MIC (Acinetobacter baumannii [16]): 2 µg/mL (≈ 3.42 µM); MIC (Acinetobacter baumannii [17]): 6 µg/mL (≈ 10.2 µM); MIC (Acinetobacter baumannii [18]): 4 µg/mL (≈ 6.83 µM); MIC (Acinetobacter baumannii [19]): 32 µg/mL (≈ 54.6 µM); MIC (Acinetobacter baumannii [20]): 2 µg/mL (≈ 3.42 µM); MIC (Acinetobacter baumannii [21]): 48 µg/mL (≈ 82 µM); MIC (Acinetobacter baumannii [22]): 3 µg/mL (≈ 5.12 µM); MIC (Acinetobacter baumannii [23]): 3 µg/mL (≈ 5.12 µM); MIC (Acinetobacter baumannii [24]): 4 µg/mL (≈ 6.83 µM); MIC (Acinetobacter baumannii [25]): 1.5 µg/mL (≈ 2.56 µM); MIC (Acinetobacter baumannii [26]): 24 µg/mL (≈ 41 µM); MIC (Acinetobacter baumannii [27]): 4 µg/mL (≈ 6.83 µM); MIC (Acinetobacter baumannii [28]): 8 µg/mL (≈ 13.7 µM); MIC (Acinetobacter baumannii [29]): 2 µg/mL (≈ 3.42 µM); MIC (Acinetobacter baumannii [30]): 3 µg/mL (≈ 5.12 µM); MIC (Acinetobacter baumannii [31]): 8 µg/mL (≈ 13.7 µM); MIC (Acinetobacter baumannii [32]): 8 µg/mL (≈ 13.7 µM); MIC (Acinetobacter baumannii [33]): 24 µg/mL (≈ 41 µM); MIC (Acinetobacter baumannii [34]): 32 µg/mL (≈ 54.6 µM); MIC (Acinetobacter baumannii [35]): 3 µg/mL (≈ 5.12 µM); MIC (Acinetobacter baumannii [36]): 3 µg/mL (≈ 5.12 µM); MIC (Acinetobacter baumannii [37]): 3 µg/mL (≈ 5.12 µM); MIC (Acinetobacter baumannii [38]): < 0.5 µg/mL; MIC (Acinetobacter baumannii [39]): 2 µg/mL (≈ 3.42 µM); MIC (Acinetobacter baumannii [40]): 32 µg/mL (≈ 54.6 µM)
